A short description of this data set: solubility of the bio-liquid crystal polymer in solvents. In kind it is physicochemical. Details: key: +a: soluble only when heated; +: dissolved; −: not dissolved.

The record followed here is patent publication US7182884B2, “Bio-liquid crystal polymer and shaped material using same” (Toyoda Gosei Co., Ltd., priority 2003, dated 2007).

As for `O=C(O)/C=C/c1ccc(O)cc1` [4HCA, 4-hydroxycinnamic acid], the solubility entry is recorded as “+” (solvent DMF); “+” (solvent DMSO); “+” (solvent NMP); “+” (solvent THF); “+” (solvent acetone); “+” (solvent acetonitrile). The solubility entry was “−” (solvent chloroform); “+” (solvent ethanol); “−” (solvent hexane); “+” (solvent methanol); “+” (solvent pentafluorophenol); “−” (solvent toluene). Besides, the solubility entry (solvent water) was “^+a”.
